PubChem BioAssay AID248 (DTP/NCI, 2004)
Toxic doses and inconclusive results are not listed. Rule as the data show it: active = T/C of 150% or more; inactive = T/C below 125%.

System: L1210 leukemia ip in BDF1 mice, survival T/C
Assay: NCI In Vivo Anticancer Drug Screen. Data for tumor model L1210 Leukemia (intraperitoneal) in B6D2F1 (BDF1) mice
Details: endpoint: mean survival time, higher = longer survival
Method in brief: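 Transplanted-tumor mice were given test agent; controls received vehicle only. Survival readings from the two groups were divided (treated over control).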

[1] = dose: 100.0 mg/kg/injection, schedule: Q01DX009 (ip), vehicle: saline
[2] = dose: 200.0 mg/kg/injection, schedule: Q01DX009 (ip), vehicle: saline
[3] = dose: 100.0 mg/kg/injection, schedule: Q04DX003 (ip), vehicle: saline with Tween-80
[4] = dose: 100.0 mg/kg/injection, schedule: Q04DX003 (ip), vehicle: saline
[5] = dose: 200.0 mg/kg/injection, schedule: Q04DX003 (ip), vehicle: saline
[6] = dose: 400.0 mg/kg/injection, schedule: Q04DX003 (ip), vehicle: saline

Measured: T/C

Cc1c(C(=O)O)no[n+]1[O-]
inactive: dose: 100.0 mg/kg/injection, schedule: Q04DX002 (ip), vehicle: saline 104 % of control | dose: 200.0 mg/kg/injection, schedule: Q04DX002 (ip), vehicle: saline 95 % of control | dose: 400.0 mg/kg/injection, schedule: Q04DX002 (ip), vehicle: saline 87 % of control

C=C1CC2(CCC3(CC2)CC(=C)C(=O)O3)OC1=O (stereo unspecified)
inactive: dose: 12.5 mg/kg/injection, schedule: Q04DX003 (ip), vehicle: saline 102 % of control | dose: 25.0 mg/kg/injection, schedule: Q04DX003 (ip), vehicle: saline 116 % of control | dose: 50.0 mg/kg/injection, schedule: Q04DX003 (ip), vehicle: saline 119 % of control

Cc1ccc(NCCN2CCCCC2)c2c(=O)c3ccccc3sc12
inactive: [1] 110 % of control | [2] 96 % of control | dose: 400.0 mg/kg/injection, schedule: Q01DX009 (ip), vehicle: saline 107 % of control

CC(C)C(=O)Nc1ccc(S(=O)(=O)Cl)cc1
inactive: [3] 95 % of control | dose: 200.0 mg/kg/injection, schedule: Q04DX003 (ip), vehicle: saline with Tween-80 90 % of control | dose: 400.0 mg/kg/injection, schedule: Q04DX003 (ip), vehicle: saline with Tween-80 86 % of control

O=[N+]([O-])c1cccc(OCCCCOc2ccccc2)c1
inactive: dose: 100.0 mg/kg/injection, schedule: Q01DX009 (ip), vehicle: Klucel (hydroxypropylcellulose) (HPC) 98 % of control | [4] 100 % of control | dose: 200.0 mg/kg/injection, schedule: Q01DX009 (ip), vehicle: Klucel (hydroxypropylcellulose) (HPC) 101 % of control | [5] 101 % of control | dose: 400.0 mg/kg/injection, schedule: Q01DX009 (ip), vehicle: Klucel (hydroxypropylcellulose) (HPC) 102 % of control | [6] 95 % of control

COc1cc(N)c([N+](=O)[O-])c(OC)c1
inactive: dose: 25.0 mg/kg/injection, schedule: Q01DX009 (ip), vehicle: saline with Tween-80 98 % of control | dose: 50.0 mg/kg/injection, schedule: Q01DX009 (ip), vehicle: saline with Tween-80 104 % of control | dose: 100.0 mg/kg/injection, schedule: Q01DX009 (ip), vehicle: saline with Tween-80 100 % of control | [3] 106 % of control

O=C(O)CNC(=S)SCc1ccccc1
inactive: dose: 100.0 mg/kg/injection, schedule: Q04DX002 (ip), vehicle: gum acacia 97 % of control | dose: 200.0 mg/kg/injection, schedule: Q04DX002 (ip), vehicle: gum acacia 87 % of control | dose: 400.0 mg/kg/injection, schedule: Q04DX002 (ip), vehicle: gum acacia 97 % of control

CC(=O)OC[C@]12CCC(C)=CC1O[C@@H]1C(OC(C)=O)[C@@H](O)[C@@]2(C)[C@]12CO2 (stereo partly specified)
inactive: dose: 0.4 mg/kg/injection, schedule: Q01DX009 (ip), vehicle: other 97 % of control | dose: 0.8 mg/kg/injection, schedule: Q01DX009 (ip), vehicle: other 114 % of control | dose: 1.6 mg/kg/injection, schedule: Q01DX009 (ip), vehicle: other 114 % of control | dose: 3.2 mg/kg/injection, schedule: Q01DX009 (ip), vehicle: other 116 % of control

CCCCOC(=O)c1ccc(NC(=O)Nc2ccc([N+](=O)[O-])cc2OC)cc1
inactive: dose: 100.0 mg/kg/injection, schedule: Q01DX009 (ip), vehicle: other 98 % of control | dose: 200.0 mg/kg/injection, schedule: Q01DX009 (ip), vehicle: other 104 % of control | dose: 400.0 mg/kg/injection, schedule: Q01DX009 (ip), vehicle: other 87 % of control

O=S(=O)(O)CCO
inactive: dose: 50.0 mg/kg/injection, schedule: Q01DX009 (ip), vehicle: saline 99 % of control | [1] 95 % of control | [4] 97 % of control | [2] 99 % of control | [5] 101 % of control | [6] 101 % of control

CC(C)C(C(=O)O)N(C)C(=O)c1cnc2ccccc2n1 (stereo unspecified)
inactive: dose: 100.0 mg/kg/injection, schedule: Q01DX001 (ip), vehicle: saline 105 % of control | dose: 200.0 mg/kg/injection, schedule: Q01DX001 (ip), vehicle: saline 109 % of control | dose: 400.0 mg/kg/injection, schedule: Q01DX001 (ip), vehicle: saline 103 % of control
